From patent US6613536B1, “Synthetic peptides and pharmaceutical compositions comprising them for the treatment of systemic lupus erythematosus” (Yeda Research and Development Co. Ltd., priority 1995, dated 2003)

Key:
[1] = test system: lymph node cells (LNC) of BALB/c and SJL mice; assay: In vivo inhibition of LNC proliferation responses to the CDR-based peptides; set-up: species or system mouse; conditions: LNC of treated mice; not shown
Procedure: BALB/c (FIG. 5a) and SJL (FIG. 5b) mice were immunized with peptides Ia and IIIa (20 μg/mouse in CFA i.d. in the hind footpads), respectively. The mice were also injected i.v. with 200 μg of the above peptides in PBS either 3 days prior to immunization (open squares), at the immunization day (open circles) or at both dates (open triangles). Ten days later the mice were sacrificed and their lymph nodes were removed and tested for proliferation in the presence of different concentrations of the immunizing peptide. Control groups were of LNC taken from mice that were immunized but not treated (filled squares), or treated with control peptide, p307 (half filled squares). The culture mixtures were incubated for 96 hours in enriched RPMI medium containing 1% normal mouse serum prior to addition of ^3H-thymidine. Sixteen hours later cells were harvested and radioactivity was counted. Results are expressed as mean CPM of triplicates.

[2] = target: T1, MHC class II products on splenic antigen-presenting cells (APC) (Mus musculus, UniProt P06345+P14437); assay: Inhibition of peptide binding to APC by anti-Ia mAb; set-up: concentration or dose not given beside the values; conditions: SJL, H-2 s
T1 construct: Splenic adherent cells (10^6/100 μl/tube) isolated from BALB/c, SJL, C3H.SW or C57BL/6 mice; from tissue; host or cells: mouse spleen adherent cells (BALB/c, SJL, C3H.SW, C57BL/6)
T1 sequence (P14437 1-233): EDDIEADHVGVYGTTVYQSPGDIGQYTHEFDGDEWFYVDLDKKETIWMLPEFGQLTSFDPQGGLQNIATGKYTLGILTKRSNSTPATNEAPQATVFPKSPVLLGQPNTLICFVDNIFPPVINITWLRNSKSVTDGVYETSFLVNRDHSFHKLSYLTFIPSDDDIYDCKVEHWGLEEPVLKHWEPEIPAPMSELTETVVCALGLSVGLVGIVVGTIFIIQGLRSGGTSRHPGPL
T1 sequence (P06345 28-263): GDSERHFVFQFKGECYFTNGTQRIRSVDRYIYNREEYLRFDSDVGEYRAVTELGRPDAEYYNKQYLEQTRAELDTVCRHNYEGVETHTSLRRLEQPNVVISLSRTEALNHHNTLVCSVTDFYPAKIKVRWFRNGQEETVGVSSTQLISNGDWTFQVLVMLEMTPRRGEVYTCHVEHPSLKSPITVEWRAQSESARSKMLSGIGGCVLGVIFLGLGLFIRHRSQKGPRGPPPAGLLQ
Procedure: Spleen cells suspended in RPMI 1640 medium containing 10% FCS were incubated in Petri dishes for 60 min at 37° C. Thereafter, non-adherent cells were removed, the plates were washed, and the adherent cells were collected from the plates using a rubber policeman (Costar, Mass., USA). These cells (1×10^6/100 μl/tube) were incubated with the biotinylated peptides in PBS containing 0.1% BSA (high purity grade, Amresco, Ohio, USA) for 16 hr at 37° C., followed by incubation with phycoerythrin (PE)-streptavidin (Jackson ImmunoResearch) for 30 min at 4° C. Thereafter the samples were incubated with biotinylated anti-streptavidin (1:60, Vector Laboratories, Burlingame, Calif.) and for an additional period with PE-streptavidin, all for 30 min at 4° C. The cells were washed twice with cold PBS/BSA solution after each incubation. Thereafter, cells were analyzed by flow cytometry using the FACSort cytometer and CELLQuest software (Beckton-Dickinson, Mountain View, Calif.). […]
Binding of the CDR-based peptides Ia and IIIa to APC was determined as described in Materials and Methods herein and the results are shown in Table 2. […] The results are shown in Table 3: Inhibition of binding was specific and ranged from 60% to 100%.

[3] = test system: lymph node cells (LNC) of BALB/c and SJL mice; assay: In vivo inhibition of LNC proliferation to human mAb 16/6 Id; conditions: 200 μg/mouse i.v., vs not treated or p307
Procedure: BALB/c (FIG. 7a) and SJL (FIG. 7b) mice were immunized with human mAb 16/6 Id (1 μg/mouse in CFA i.d. in the hind footpads) and were injected (200 μg/mouse i.v. in PBS) with either peptide Ia or IIIa, respectively. Proliferation responses to mAb 16/6 Id were measured in LNC taken from immunized but not-treated mice (filled squares), from mice treated concomitantly with immunization with the control peptide p307 (half filled squares) or from mice treated with the appropriate CDR-based peptide Ia or IIIa (open squares). Proliferation responses were also shown to the immunodominant CDR-based peptide Ia or IIIa of LNC taken from 16/6 Id immunized non-treated mice (filled circles) or from mice treated with the appropriate CDR-based peptide Ia or IIIa (open circles). Results are expressed as mean CPM of triplicates.

[4] = test system: antibodies in sera of SLE patients and healthy controls; assay: Antibodies in human sera binding coated peptides or mAb 5G12 (ELISA); conditions: 32 SLE patients in comparison to healthy controls; plates coated 10 μg/ml
Procedure: Human SLE patients (32 patients) were bled and their sera were tested by ELISA for their ability to bind the peptides Ia, IIa and IIIa, a control peptide p195-212 (a myasthogenic peptide described in PCT publication No. WO 94/00148) or mAb 5G12.
Detection of the antibodies was conducted on plates that were coated with 10 μg/ml of peptides Ia, IIa, IIIa or p195-212 or mAb 5G12, in PBS for 2 hr, washed and blocked with 1% ovalbumin in PBS for an additional 2 hr. ELISA was continued as described after blockage in Example 2 above, using goat anti-human IgG polyclonal antibody conjugated to peroxidase.

BALB/c and SJL mice = assay: Clinical manifestations of SLE in immunized mice (WBC, proteinuria, kidney analysis); format: in vivo, mouse; conditions: for W.B.C., white blood cell counts / proteinuria: five months after immunization; for number of white blood cells (in words): in comparison to non-immunized mice or p278-immunized mice
Procedure: The erythrocyte sedimentation rate was determined by diluting the heparinized blood in PBS at a ratio of 1:1. The diluted blood was then passed to a microsampling pipette and the sedimentation was measured 6 hours later. White blood cell counts were determined after the hemolysis of heparinized blood. Proteinuria was measured in a semi-quantitative manner, using a Combistix kit (Ames, Stoke Poges, Slough, U.K.). Immunohistology was performed by incubation of fixed frozen cryostat sections with FITC-labeled antibodies to mouse Ig. Staining was visualized via use of a fluorescent microscope.
BALBtc and SJL mice were immunized with mAb 5G12 or with peptides Ia and IIIa, and five months later were checked by two criteria for manifestation of SLE: white blood cell count (WBC) and proteinuria.
(i) White blood cell count (WBC): The mice were bled, their blood was diluted 1:10 with 1% (vol/vol) acetic acid in order to eliminate the red blood cells, and white blood cells were counted under a normal light microscope.
Proteinuria: The urine of the mice was tested using combisticks (Combistix Kit, Ames) for the presence of protein.

| Substance | proliferative responses of the LNC to Con A (specificity) [1] | % inhibition of binding to APC ([2]; mAb anti I-A^d (MKD6)) [%] | % inhibition of binding to APC ([2]; mAb anti I-A^s (10.3.6.2)) [%] | proliferative responses to mAb 16/6 Id of LNC ([3]; SJL mice immunized with human mAb 16/6 Id) | levels of serum antibodies that bind the coated peptide or mAb [4] | W.B.C., white blood cell counts (BALB/c and SJL mice; BALB/c mice) [per mm^3] | proteinuria (BALB/c and SJL mice; BALB/c mice) [g/L] | W.B.C., white blood cell counts (BALB/c and SJL mice; SJL mice) [per mm^3] | proteinuria (BALB/c and SJL mice; SJL mice) [g/L] | number of white blood cells (in words) (BALB/c and SJL mice) | proliferative responses to mAb 16/6 Id of LNC ([3]; BALB/c mice immunized with human mAb 16/6 Id) | protein level in urine (in words) (BALB/c and SJL mice; BALB/c mice) | protein level in urine (in words) (BALB/c and SJL mice; SJL mice) |
| --- | --- | --- | --- | --- | --- | --- | --- | --- | --- | --- | --- | --- | --- |
| YYYCARFLWEPYAMDYWGQGS (YYCARFLWEPYAMDYWGQGS) [peptide IIIa, based on the CDR3 region of the VH chain of mAb 5G12] | not inhibited | 0 | 92.8 | inhibited | significantly higher levels of antibodies | 3325 ± 400 | 0.30 ± 0.01 | 3300 ± 1343 | 0.9 ± 0.075 | lower number of white blood cells |  |  |  |
| TGYYMQWVKQSPEKSLEWIG [peptide Ia] | not inhibited | 0 | 100 |  | significantly higher levels of antibodies | 3375 ± 350 | 0.88 ± 0.076 |  | 0.375 ± 0.04 | lower number of white blood cells | inhibited | High levels of protein | smaller increase in protein level |
